Assay results from patent US4361673A, “Polypeptide compositions” (American Home Products Corporation, priority 1981, dated 1982).
Structures can show the parent of a compound that is named as a salt. Non-standard residues stand in square brackets, D forms with d. Residues, ends and D or L forms follow the SMILES beside them. No end group written: not given here. pGlu = O=C1CC[C@@H](C(=O)O)N1

Columns and labels:
[1] = tested on: T lymphocytes isolated from spleens of male CBA/J or NZB mice; assay: T lymphocyte proliferation, 3H-thymidine uptake; assay type: cell-based
Procedure: The activity of the compounds of Examples is determined according to the following procedure:
T lymphocytes are isolated from spleens of male CBA/J or NZB mice. Cell homogenates are prepared in Hank's balanced salt solution (HBSS). After removal of larger particles and repeated washing of the cells in HBSS they are suspended in minimum essential medium (MEM) and passed through a glass wool column to remove macrophages. The cells are then incubated on a nylon wool column at 37° C., 95% air, 5% CO2, for 45 minutes. The non-adherant T lymphocytes are then eluted from the column, counted, and adjusted to 20×10^6 cells/ml. 50 μl. of cells are cultured (37° C., 95% air, 5% Co2) with compound, for 48 hours before addition of 0.5 μCi. of 3H-thymidine for the last 16 hours of culture. The total volume of the culture system is 200 μl. The cells are then harvested on a multiple automatic sample harvester (Mash II), the glass fiber filter disks placed in 10 ml. of xylene base scintillation fluid, and counted for 1 minute in a liquid scintillation counter. Results are reported as CPM±SE. Levamisole is used as the standard. Comparisons are made between counts obtained with control cultures and cultures containing compound and a determination made as to whether the compounds are active at the dosage tested.

[2] = several biological models; Low et al.; cited from earlier work
[3] = 1.5 ng/culture, control (0 ng) 49,519 ± 4048
[4] = 6.0 ng/culture, control (0 ng) 49,519 ± 4048
[5] = 25.0 ng/culture, control (0 ng) 49,519 ± 4048
[6] = 100.0 ng/culture, control (0 ng) 49,519 ± 4048

Which results are given for `CC(C)[C@H](NC(=O)[C@H](CCC(=O)O)NC(=O)[C@H](CCCCN)NC(=O)[C@@H](N)CCCCN)C(=O)O` [H-- Lys--Lys--Glu Val--OH, L-Lysyl-L-lysyl-L-glutamyl-L-valine, diacetate salt] (H-KKEV-OH)?
3H-Thymidine Uptake CPM + S.E. ([1]; 2.5 ng/culture, control (0 ng) 2,789 ± 148): 3,931 ± 140 CPM; 3H-Thymidine Uptake CPM + S.E. ([1]; 10 ng/culture, control (0 ng) 2,789 ± 148): 3,745 ± 172 CPM; 3H-Thymidine Uptake CPM + S.E. ([1]; 25 ng/culture, control (0 ng) 2,789 ± 148): 4,397 ± 346 CPM; 3H-Thymidine Uptake CPM + S.E. ([1]; 100 ng/culture, control (0 ng) 2,789 ± 148): 4,235 ± 284 CPM

Which results are given for `CC(=O)O.CC(=O)O.CC(=O)O.CC(C)[C@H](NC(=O)[C@H](CCC(=O)O)NC(=O)[C@H](CCCCN)NC(=O)[C@@H](N)CCCCN)C(N)=O` [H--Lys--Lys--Glu--Val--NH2, L-lysyl-L-lysyl-L-glutamyl-L-valineamide, triacetate salt] (H-KKEV-NH2)?
3H-Thymidine Uptake CPM + S.E. [1, 3]: 72,713 ± 3633 CPM; 3H-Thymidine Uptake CPM + S.E. [1, 4]: 77,979 ± 3760 CPM; 3H-Thymidine Uptake CPM + S.E. [1, 5]: 62,712 ± 6004 CPM; 3H-Thymidine Uptake CPM + S.E. [1, 6]: 51,021 ± 5527 CPM

With `c1ccc([C@H]2CN3CCSC3=N2)cc1` [Levamisole, reference compound] as the compound, how does the “3H-Thymidine Uptake CPM + S.E.” value ([1]; 5 ng/culture, 48 h culture, 3H-thymidine last 16 h, control 49,519 ± 4048) read?
The value was 70,353 ± 1561 CPM.

With `NCCCC[C@H](NC(=O)[C@H](CCCCN)NC(=O)[C@@H]1CCC(=O)N1)C(=O)N[C@@H](CCC(=O)O)C(N)=O` [p-Glu--Lys--Lys--Glu--NH2, L-(5-oxoprolyl)-L-lysyl-L-lysyl-L-α-glutamine, diacetate salt] ([pGlu]KKE-NH2) as the compound, how does the “3H-Thymidine Uptake CPM + S.E.” value [1, 3] read?
Its value is 73,407 ± 3333 CPM.

And the “3H-Thymidine Uptake CPM + S.E.” value [1, 4]?
The value was 78,727 ± 7102 CPM.

And the “3H-Thymidine Uptake CPM + S.E.” value [1, 5]?
Its value is 73,932 ± 6944 CPM.

And the “3H-Thymidine Uptake CPM + S.E.” value [1, 6]?
The value was 67,489 ± 5190 CPM.

For `CC(C)[C@H](NC(=O)[C@H](CCC(=O)O)NC(=O)[C@H](CCCCN)NC(=O)[C@H](CCCCN)NC(=O)[C@@H]1CCC(=O)N1)C(N)=O` [p-Glu--Lys--Lys--Glu--Val--NH2, L-(5-oxoprolyl)-L-lysyl-L-lysyl-L-α-glutamyl-L-valinamide, diacetate salt] ([pGlu]KKEV-NH2), which “3H-Thymidine Uptake CPM + S.E.” value ([1]; 1.5 ng/culture, control (0 ng) 9,876 ± 951) is on record?
Its value is 23,736 ± 3417 CPM.

What about the “3H-Thymidine Uptake CPM + S.E.” value ([1]; 6.0 ng/culture, control (0 ng) 9,876 ± 951) of the same compound?
Its value is 31,236 ± 2004 CPM.

And the “3H-Thymidine Uptake CPM + S.E.” value ([1]; 25.0 ng/culture, control (0 ng) 9,876 ± 951)?
The value was 26,026 ± 3537 CPM.

And the “3H-Thymidine Uptake CPM + S.E.” value ([1]; 100.0 ng/culture, control (0 ng) 9,876 ± 951)?
The value was 27,830 ± 1749 CPM.

For “thymosin α1 (SDAAVDTSSEITTKDLKEKKEVVEEAEN; ends and bridges not checked; UniProt P06454 2-29, looked up)”, which “activity relative to the parent thymosin Fraction 5” value [2] is on record?
The value was 10-1,000 times.
